How the values were obtained:
Caco-2 [1] = assay: relative viability EC50 (midpoint between 100% and the lowest measured viability); higher = less toxic; details: 72 h
Vero E6 [2] = assay: as above; details: 72 h
HepG2 [3] = assay: as above; details: 72 h
Calu-3 [4] = assay: as above; details: 72 h
A549-ACE2 [5] = assay: drug-induced phospholipidosis relative to tamoxifen; higher = more phospholipidosis
U2OS [6] = assay: drug sensitivity score (DSS) for viability; higher = more toxic; extreme values may be limits of the assay; details: 72 h
Caco-2 [7] = assay: as above; details: 72 h
Vero E6 [8] = assay: as above; details: 72 h
HepG2 [9] = assay: as above; details: 72 h
Calu-3 [10] = assay: as above; details: 72 h
[11] = test system: A549-ACE2 infected with SARS-CoV-2; assay: cell count relative to DMSO; higher = less toxic; details: 24 h
[12] = test system: A549-ACE2 infected with SARS-CoV-2; assay: SARS-CoV-2 infection rate relative to DMSO; higher = more infection; details: 24 h
A549-ACE2 [13] = assay: phospholipidosis EC50; higher = less potent phospholipidosis inducer
[14] = test system: A549-ACE2 infected with SARS-CoV-2; assay: morphology score (similarity to uninfected cells); higher = more like uninfected cells; details: 24 h
U2OS [15] = assay: cell viability relative to DMSO; higher = less toxic; details: 72 h
Caco-2 [16] = assay: as above; details: 72 h
Vero E6 [17] = assay: as above; details: 72 h
HepG2 [18] = assay: as above; details: 72 h
Calu-3 [19] = assay: as above; details: 72 h
U2OS [20] = assay: relative viability EC50 (midpoint between 100% and the lowest measured viability); higher = less toxic; details: 72 h

CNCc1ccc(-c2cc(-c3nc(-c4ccc(S(=O)(=O)C(C)C)cc4)cnc3N)on2)cc1 [VE-822]
Details	drug sensitivity score	relative viability EC50 [µM]
Caco-2 [1]	–	2.04
Caco-2 [7]	3.9	–
Calu-3 [4]	–	> 10
Calu-3 [10]	0	–
HepG2 [3]	–	0.779
HepG2 [9]	10.1	–
U2OS [6]	2.6	–
Vero E6 [2]	–	1.97
Vero E6 [8]	7.9	–

drug-induced phospholipidosis [%], A549-ACE2 [5]
Details	0.3 µM	0.833333 µM	3.33333 µM	6.66667 µM	10 µM	30 µM
24 h	13.9	27.3	86.2	113	119	42.3
48 h	14.2	28	89.1	124	148	62.7
72 h	16.7	20.1	102	143	163	63.3

Details	SARS-CoV-2 infection rate [%]	cell count [%]	cell viability [%]	morphology score	phospholipidosis EC50 [µM]
A549-ACE2 [13], 24 h	–	–	–	–	1.16
A549-ACE2 [13], 48 h	–	–	–	–	3.02
A549-ACE2 [13], 72 h	–	–	–	–	2.97
Caco-2 [16], 1 nM	–	–	104	–	–
Caco-2 [16], 10 nM	–	–	103	–	–
Caco-2 [16], 100 nM	–	–	103	–	–
Caco-2 [16], 1000 nM	–	–	92.8	–	–
Caco-2 [16], 10000 nM	–	–	49.3	–	–
Calu-3 [19], 1 nM	–	–	96.5	–	–
Calu-3 [19], 10 nM	–	–	93.2	–	–
Calu-3 [19], 100 nM	–	–	93.4	–	–
Calu-3 [19], 1000 nM	–	–	106	–	–
Calu-3 [19], 10000 nM	–	–	90	–	–
HepG2 [18], 1 nM	–	–	111	–	–
HepG2 [18], 10 nM	–	–	99	–	–
HepG2 [18], 100 nM	–	–	94	–	–
HepG2 [18], 1000 nM	–	–	53.3	–	–
HepG2 [18], 10000 nM	–	–	19.1	–	–
U2OS [15], 1 nM	–	–	101	–	–
U2OS [15], 10 nM	–	–	104	–	–
U2OS [15], 100 nM	–	–	96	–	–
U2OS [15], 1000 nM	–	–	89.9	–	–
U2OS [15], 10000 nM	–	–	67.4	–	–
Vero E6 [17], 1 nM	–	–	94.8	–	–
Vero E6 [17], 10 nM	–	–	95.7	–	–
Vero E6 [17], 100 nM	–	–	97.2	–	–
Vero E6 [17], 1000 nM	–	–	85.1	–	–
Vero E6 [17], 10000 nM	–	–	2.1	–	–
[11], 0.1 µM	–	107	–	–	–
[11], 0.3 µM	–	110	–	–	–
[11], 1 µM	–	128	–	–	–
[11], 3 µM	–	118	–	–	–
[12], 0.1 µM	89	–	–	–	–
[12], 0.3 µM	89	–	–	–	–
[12], 1 µM	51	–	–	–	–
[12], 3 µM	25	–	–	–	–
[14], 0.1 µM	–	–	–	0.32	–
[14], 0.3 µM	–	–	–	0.31	–
[14], 1 µM	–	–	–	0.57	–
[14], 3 µM	–	–	–	0.55	–

CCSc1ccc2c(c1)N(CCCN1CCN(C)CC1)c1ccccc1S2 [thiethylperazine]
Details	drug sensitivity score	relative viability EC50 [µM]
Caco-2 [7]	1.6	–
Calu-3 [10]	1.5	–
HepG2 [9]	3.9	–
U2OS [6]	0	–
U2OS [20]	–	> 10
Vero E6 [2]	–	> 10
Vero E6 [8]	0.3	–

drug-induced phospholipidosis [%], A549-ACE2 [5]
Details	0.3 µM	0.833333 µM	3.33333 µM	6.66667 µM	10 µM	30 µM
24 h	2.75	4.77	26.3	67.4	80	53.2
48 h	3.55	4.25	19.4	77.1	97	–
72 h	4.26	5.76	19.6	70	104	–

Details	SARS-CoV-2 infection rate [%]	cell count [%]	cell viability [%]	morphology score	phospholipidosis EC50 [µM]
A549-ACE2 [13], 24 h	–	–	–	–	3.52
A549-ACE2 [13], 48 h	–	–	–	–	5.17
A549-ACE2 [13], 72 h	–	–	–	–	6.75
Caco-2 [16], 1 nM	–	–	101	–	–
Caco-2 [16], 10 nM	–	–	95.4	–	–
Caco-2 [16], 100 nM	–	–	91.7	–	–
Caco-2 [16], 1000 nM	–	–	98.4	–	–
Caco-2 [16], 10000 nM	–	–	69.6	–	–
Calu-3 [19], 1 nM	–	–	101	–	–
Calu-3 [19], 10 nM	–	–	89.2	–	–
Calu-3 [19], 100 nM	–	–	95.9	–	–
Calu-3 [19], 1000 nM	–	–	110	–	–
Calu-3 [19], 10000 nM	–	–	59.9	–	–
HepG2 [18], 1 nM	–	–	98	–	–
HepG2 [18], 10 nM	–	–	100	–	–
HepG2 [18], 100 nM	–	–	101	–	–
HepG2 [18], 1000 nM	–	–	89.5	–	–
HepG2 [18], 10000 nM	–	–	55.6	–	–
U2OS [15], 1 nM	–	–	103	–	–
U2OS [15], 10 nM	–	–	102	–	–
U2OS [15], 100 nM	–	–	106	–	–
U2OS [15], 1000 nM	–	–	106	–	–
U2OS [15], 10000 nM	–	–	91.6	–	–
Vero E6 [17], 1 nM	–	–	97.7	–	–
Vero E6 [17], 10 nM	–	–	95.5	–	–
Vero E6 [17], 100 nM	–	–	95	–	–
Vero E6 [17], 1000 nM	–	–	102	–	–
Vero E6 [17], 10000 nM	–	–	83.2	–	–
[11], 0.3 µM	–	98	–	–	–
[11], 3 µM	–	116	–	–	–
[11], 10 µM	–	122	–	–	–
[11], 30 µM	–	17	–	–	–
[12], 0.3 µM	99	–	–	–	–
[12], 3 µM	40	–	–	–	–
[12], 10 µM	12	–	–	–	–
[12], 30 µM	61	–	–	–	–
[14], 0.3 µM	–	–	–	0.15	–
[14], 3 µM	–	–	–	0.81	–
[14], 10 µM	–	–	–	0.8	–
[14], 30 µM	–	–	–	-0.01	–

C[C@@H](NCCCc1cccc(C(F)(F)F)c1)c1cccc2ccccc12 [cinacalcet]
Details	drug sensitivity score	relative viability EC50 [µM]
Caco-2 [7]	2.9	–
Calu-3 [4]	–	3.06
Calu-3 [10]	5.3	–
HepG2 [9]	2.2	–
U2OS [6]	0	–
U2OS [20]	–	> 10
Vero E6 [2]	–	> 10
Vero E6 [8]	0.4	–

drug-induced phospholipidosis [%], A549-ACE2 [5]
Details	0.3 µM	0.833333 µM	3.33333 µM	6.66667 µM	10 µM	30 µM
24 h	3.21	8.87	65.6	89.9	102	53.7
48 h	2.84	6.54	45.1	87.9	107	–
72 h	4.18	6.97	37.3	82.3	102	–

Details	SARS-CoV-2 infection rate [%]	cell count [%]	cell viability [%]	morphology score	phospholipidosis EC50 [µM]
A549-ACE2 [13], 24 h	–	–	–	–	2.77
A549-ACE2 [13], 48 h	–	–	–	–	4.97
A549-ACE2 [13], 72 h	–	–	–	–	5.11
Caco-2 [16], 1 nM	–	–	99.8	–	–
Caco-2 [16], 10 nM	–	–	96.4	–	–
Caco-2 [16], 100 nM	–	–	100	–	–
Caco-2 [16], 1000 nM	–	–	89.1	–	–
Caco-2 [16], 10000 nM	–	–	68.4	–	–
Calu-3 [19], 1 nM	–	–	109	–	–
Calu-3 [19], 10 nM	–	–	109	–	–
Calu-3 [19], 100 nM	–	–	101	–	–
Calu-3 [19], 1000 nM	–	–	98.6	–	–
Calu-3 [19], 10000 nM	–	–	7.3	–	–
HepG2 [18], 1 nM	–	–	98	–	–
HepG2 [18], 10 nM	–	–	102	–	–
HepG2 [18], 100 nM	–	–	87.9	–	–
HepG2 [18], 1000 nM	–	–	96.4	–	–
HepG2 [18], 10000 nM	–	–	66.3	–	–
U2OS [15], 1 nM	–	–	106	–	–
U2OS [15], 10 nM	–	–	95.8	–	–
U2OS [15], 100 nM	–	–	103	–	–
U2OS [15], 1000 nM	–	–	99.6	–	–
U2OS [15], 10000 nM	–	–	89.4	–	–
Vero E6 [17], 1 nM	–	–	102	–	–
Vero E6 [17], 10 nM	–	–	106	–	–
Vero E6 [17], 100 nM	–	–	104	–	–
Vero E6 [17], 1000 nM	–	–	101	–	–
Vero E6 [17], 10000 nM	–	–	82.2	–	–
[11], 0.3 µM	–	96	–	–	–
[11], 3 µM	–	103	–	–	–
[11], 10 µM	–	87	–	–	–
[12], 0.3 µM	93	–	–	–	–
[12], 3 µM	59	–	–	–	–
[12], 10 µM	54	–	–	–	–
[14], 0.3 µM	–	–	–	0.09	–
[14], 3 µM	–	–	–	0.67	–
[14], 10 µM	–	–	–	0.55	–

Reference: the supplement of paper PMC13380429
